Measurements reported in ChEMBL document CHEMBL5137067, “Spiro-naphthyridine Antagonists of the Melanocortin Receptor 4 for the Treatment of Cachexia Associated with Chronic Illness” (ACS Med Chem Lett, 2022).
pKi: −log10 of the molar value.

How the values were obtained:
Melanocortin receptor 4 [1] = molecular target: T1, Melanocortin receptor 4 (Homo sapiens, UniProt P32245); experiment: Antagonist activity at human MC4R expressed in CHO cells assessed as decrease in alpha-MSH induced cAMP level by measuring equilibrium binding constant preincubated for 30 mins followed by alpha-MSH addition measured after 30 mins by HTRF method; assay type: functional, cell-based; details: time 60.0 min
T1 sequence (P32245 whole entry): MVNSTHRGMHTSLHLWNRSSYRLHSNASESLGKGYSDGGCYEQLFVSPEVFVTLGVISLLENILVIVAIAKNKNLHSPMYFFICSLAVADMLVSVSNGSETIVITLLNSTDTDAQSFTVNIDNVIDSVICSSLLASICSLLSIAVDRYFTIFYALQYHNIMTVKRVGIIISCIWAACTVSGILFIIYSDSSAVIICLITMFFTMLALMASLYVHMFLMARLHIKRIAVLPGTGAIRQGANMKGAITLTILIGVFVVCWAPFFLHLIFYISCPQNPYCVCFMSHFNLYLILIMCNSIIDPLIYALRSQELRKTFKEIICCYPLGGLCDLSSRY

Melanocortin receptor 4 [2] = molecular target: T1, Melanocortin receptor 4; experiment: Displacement of [125I]-[Nle4-D-phe7]-alpha-MSH from to human MC4R expressed in CHO cells incubated for 2 hrs by liquid scintillation counting method; assay type: cell-based

Kb (Melanocortin receptor 4 [1]; filed as antagonist)	pKi (Melanocortin receptor 4 [2])	Kb (Melanocortin receptor 4 [1])	SMILES
0.4 nM			COc1cc(OC)cc([C@@H](C)C(=O)N2CCC3(CCc4cc(-c5cnn(C)c5)c(C)nc4N3)C2)c1 (single isomer, unassigned)
0.07 nM	9.55		COc1cc([C@@H](C)C(=O)N2CC[C@@]3(CCc4cc(-c5nc6ccccn6n5)c(C)nc4N3)C2)c(Cl)cn1
	7.09	> 96 nM	Cc1nc2c(cc1-c1ncccn1)CC[C@@]1(CCN(C(=O)C(C)c3ccc(Cl)cc3Cl)C1)N2 (stereo partly drawn)
	< 6.70		Cc1nc2c(cc1-c1ncccn1)CC[C@@]1(CCN(C(=O)[C@H](C)c3ccc(OC(F)F)nc3)C1)N2
0.08 nM			COc1cc([C@@H](C)C(=O)N2CC[C@@]3(CCc4cc(-c5nc(C(F)F)n(C)n5)c(C)nc4N3)C2)c(Cl)cn1
1.2 nM			COc1cc([C@@H](C)C(=O)N2CC[C@]3(CCc4cc(-c5nnn(C)n5)c(C)nc4N3)C2)c(Cl)cn1
8.5 nM			Cc1nc2c(cc1-c1ncccn1)CC[C@@]1(CCN(C(=O)[C@@H](C)c3ccc(OC(F)F)nc3)C1)N2
0.18 nM	9.27		Cc1nc2c(cc1-c1ncccn1)CC[C@@]1(CCN(C(=O)C(C)c3cc(OC(F)F)ncc3Cl)C1)N2 (single isomer, unassigned)
	7.24		Cc1nc2c(cc1-c1cnn(C)c1)CC[C@@]1(CCN(C(=O)C(C)c3ccc(OC(F)F)nc3)C1)N2 (stereo partly drawn)
0.049 nM			COc1cc([C@@H](C)C(=O)N2CC[C@@]3(CCc4cc(-c5nnn(C)n5)c(C)nc4N3)C2)c(Cl)cn1
